The species named for assay [1] is Homo sapiens. Kind of assay: Selectivity index, ratio of IC50 for inhibition of recombinant human JAK2 to IC50 for inhibition of recombinant human JAK1.
The species entered for assay [2] is Homo sapiens. The assay is described as follows: Selectivity index, ratio of IC50 for inhibition of recombinant human TYK2 to IC50 for inhibition of recombinant human JAK1.
Assay [3] has as its target Tyrosine-protein kinase JAK1 (Homo sapiens, UniProt P23458). The assay is described as follows: Inhibition of recombinant human JAK1 using MGEEPLYWSFPAKKK as substrate incubated for 40 mins in presence of Mg/ATP mixture by [gamma p33]-ATP based scintillation counting method.
The target in assay [4] is Tyrosine-protein kinase JAK2 (Homo sapiens, UniProt O60674). The assay is described as follows: Inhibition of recombinant human JAK2 using KTFCGTPEYLAPEVRREPRILSEEEQEMFRDFDYIADWC as substrate incubated for 40 mins in presence of Mg/ATP mixture by [gamma p33]-ATP based scintillation counting method.
Chain of Tyrosine-protein kinase JAK2 (O60674 whole entry): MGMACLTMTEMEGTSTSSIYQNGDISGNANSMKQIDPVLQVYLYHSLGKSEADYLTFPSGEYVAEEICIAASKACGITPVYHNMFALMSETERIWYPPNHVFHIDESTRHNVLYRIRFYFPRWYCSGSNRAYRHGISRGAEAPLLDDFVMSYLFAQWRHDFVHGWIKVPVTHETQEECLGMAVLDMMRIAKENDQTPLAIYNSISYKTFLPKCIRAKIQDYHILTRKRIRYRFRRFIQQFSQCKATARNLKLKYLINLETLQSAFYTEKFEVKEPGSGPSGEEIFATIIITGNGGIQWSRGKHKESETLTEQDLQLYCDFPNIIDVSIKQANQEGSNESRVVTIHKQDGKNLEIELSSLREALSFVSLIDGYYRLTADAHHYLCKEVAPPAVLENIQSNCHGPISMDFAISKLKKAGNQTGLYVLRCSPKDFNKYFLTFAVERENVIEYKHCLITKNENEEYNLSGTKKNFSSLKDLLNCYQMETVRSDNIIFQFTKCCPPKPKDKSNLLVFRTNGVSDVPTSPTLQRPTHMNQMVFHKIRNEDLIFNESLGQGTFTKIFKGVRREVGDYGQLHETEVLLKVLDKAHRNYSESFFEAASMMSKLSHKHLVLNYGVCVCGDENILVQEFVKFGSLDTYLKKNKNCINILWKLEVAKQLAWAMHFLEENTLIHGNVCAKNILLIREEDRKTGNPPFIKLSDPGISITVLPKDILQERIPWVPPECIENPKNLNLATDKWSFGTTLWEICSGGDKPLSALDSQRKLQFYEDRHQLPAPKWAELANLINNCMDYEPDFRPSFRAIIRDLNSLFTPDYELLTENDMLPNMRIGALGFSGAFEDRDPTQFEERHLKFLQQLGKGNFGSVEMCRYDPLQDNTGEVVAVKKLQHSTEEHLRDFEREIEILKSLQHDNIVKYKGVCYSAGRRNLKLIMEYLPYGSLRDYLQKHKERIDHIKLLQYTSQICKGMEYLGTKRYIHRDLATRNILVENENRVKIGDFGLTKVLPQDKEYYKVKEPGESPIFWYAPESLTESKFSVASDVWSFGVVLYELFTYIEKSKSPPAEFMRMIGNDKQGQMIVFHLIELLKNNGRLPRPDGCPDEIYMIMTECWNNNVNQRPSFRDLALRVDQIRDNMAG
For assay [5], the target named is T1, Tyrosine-protein kinase JAK3 (Homo sapiens, UniProt P52333).
T1 sequence (P52333 whole entry): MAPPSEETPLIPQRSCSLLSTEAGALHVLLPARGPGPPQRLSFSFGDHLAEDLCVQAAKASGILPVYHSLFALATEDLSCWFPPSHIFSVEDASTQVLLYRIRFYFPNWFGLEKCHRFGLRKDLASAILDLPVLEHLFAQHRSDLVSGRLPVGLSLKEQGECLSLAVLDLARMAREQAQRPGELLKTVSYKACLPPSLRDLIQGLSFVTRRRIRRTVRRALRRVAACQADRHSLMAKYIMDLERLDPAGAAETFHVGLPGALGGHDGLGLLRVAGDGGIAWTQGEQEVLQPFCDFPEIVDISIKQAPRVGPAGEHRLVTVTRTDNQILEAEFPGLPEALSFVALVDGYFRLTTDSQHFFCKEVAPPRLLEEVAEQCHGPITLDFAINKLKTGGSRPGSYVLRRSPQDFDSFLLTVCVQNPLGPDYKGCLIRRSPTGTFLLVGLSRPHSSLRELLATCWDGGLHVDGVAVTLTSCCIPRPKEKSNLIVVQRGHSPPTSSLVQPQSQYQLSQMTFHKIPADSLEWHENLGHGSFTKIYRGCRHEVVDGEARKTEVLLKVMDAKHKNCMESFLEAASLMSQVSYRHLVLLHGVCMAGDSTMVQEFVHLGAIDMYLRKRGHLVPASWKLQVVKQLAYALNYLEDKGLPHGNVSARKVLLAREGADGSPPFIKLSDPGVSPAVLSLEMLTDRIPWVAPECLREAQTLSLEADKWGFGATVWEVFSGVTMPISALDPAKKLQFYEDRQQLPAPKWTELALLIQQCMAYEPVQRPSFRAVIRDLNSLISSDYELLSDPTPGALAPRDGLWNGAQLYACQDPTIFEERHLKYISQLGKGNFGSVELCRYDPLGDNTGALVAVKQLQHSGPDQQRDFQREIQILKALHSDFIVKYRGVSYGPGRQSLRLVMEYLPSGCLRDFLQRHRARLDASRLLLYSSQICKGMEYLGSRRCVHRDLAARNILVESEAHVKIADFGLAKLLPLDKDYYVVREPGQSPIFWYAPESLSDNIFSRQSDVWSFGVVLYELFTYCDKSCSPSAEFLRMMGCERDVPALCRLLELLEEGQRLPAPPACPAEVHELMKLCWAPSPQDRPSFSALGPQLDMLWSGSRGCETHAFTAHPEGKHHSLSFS
The assay is described as follows: Inhibition of recombinant human JAK3 using GGEEEEYFELVKKKK as substrate incubated for 40 mins in presence of Mg/ATP mixture by [gamma p33]-ATP based scintillation counting method.

Assay [6] has as its target Non-receptor tyrosine-protein kinase TYK2 (Homo sapiens, UniProt P29597). Kind of assay: Inhibition of recombinant human TYK2 using GGMEDIYFEFMGGKKK as substrate incubated for 40 mins in presence of Mg/ATP mixture by [gamma p33]-ATP based scintillation counting method.

Chain of Non-receptor tyrosine-protein kinase TYK2 (P29597 whole entry): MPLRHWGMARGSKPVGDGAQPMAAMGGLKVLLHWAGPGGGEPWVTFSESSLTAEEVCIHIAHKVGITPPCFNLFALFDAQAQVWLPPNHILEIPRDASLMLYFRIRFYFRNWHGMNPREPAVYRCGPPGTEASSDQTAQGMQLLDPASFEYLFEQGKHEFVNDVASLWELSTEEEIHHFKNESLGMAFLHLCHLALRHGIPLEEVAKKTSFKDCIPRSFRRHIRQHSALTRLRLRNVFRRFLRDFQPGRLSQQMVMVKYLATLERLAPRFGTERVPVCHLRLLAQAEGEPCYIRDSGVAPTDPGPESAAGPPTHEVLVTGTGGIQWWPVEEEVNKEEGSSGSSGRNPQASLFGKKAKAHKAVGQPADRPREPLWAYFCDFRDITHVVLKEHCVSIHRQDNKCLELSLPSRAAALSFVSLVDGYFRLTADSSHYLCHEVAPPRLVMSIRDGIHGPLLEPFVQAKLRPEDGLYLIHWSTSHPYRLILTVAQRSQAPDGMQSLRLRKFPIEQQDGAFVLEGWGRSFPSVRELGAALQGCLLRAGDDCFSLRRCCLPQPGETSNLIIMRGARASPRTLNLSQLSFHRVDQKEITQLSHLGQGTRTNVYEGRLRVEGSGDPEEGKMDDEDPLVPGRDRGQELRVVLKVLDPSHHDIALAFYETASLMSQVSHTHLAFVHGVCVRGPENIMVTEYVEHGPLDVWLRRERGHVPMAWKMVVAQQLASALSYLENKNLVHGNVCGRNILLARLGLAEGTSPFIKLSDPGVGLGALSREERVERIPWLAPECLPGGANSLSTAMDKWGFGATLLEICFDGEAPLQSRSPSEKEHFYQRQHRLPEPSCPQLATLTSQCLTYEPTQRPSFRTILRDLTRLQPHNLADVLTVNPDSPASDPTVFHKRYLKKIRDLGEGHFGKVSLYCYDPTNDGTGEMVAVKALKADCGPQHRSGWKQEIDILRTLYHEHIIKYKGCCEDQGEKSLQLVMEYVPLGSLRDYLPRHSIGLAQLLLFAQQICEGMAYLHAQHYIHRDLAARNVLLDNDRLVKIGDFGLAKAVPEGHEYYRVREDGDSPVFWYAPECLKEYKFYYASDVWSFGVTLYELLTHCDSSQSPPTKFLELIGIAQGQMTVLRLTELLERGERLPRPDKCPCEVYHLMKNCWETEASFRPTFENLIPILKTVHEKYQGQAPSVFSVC
Chain of Tyrosine-protein kinase JAK1 (P23458 whole entry): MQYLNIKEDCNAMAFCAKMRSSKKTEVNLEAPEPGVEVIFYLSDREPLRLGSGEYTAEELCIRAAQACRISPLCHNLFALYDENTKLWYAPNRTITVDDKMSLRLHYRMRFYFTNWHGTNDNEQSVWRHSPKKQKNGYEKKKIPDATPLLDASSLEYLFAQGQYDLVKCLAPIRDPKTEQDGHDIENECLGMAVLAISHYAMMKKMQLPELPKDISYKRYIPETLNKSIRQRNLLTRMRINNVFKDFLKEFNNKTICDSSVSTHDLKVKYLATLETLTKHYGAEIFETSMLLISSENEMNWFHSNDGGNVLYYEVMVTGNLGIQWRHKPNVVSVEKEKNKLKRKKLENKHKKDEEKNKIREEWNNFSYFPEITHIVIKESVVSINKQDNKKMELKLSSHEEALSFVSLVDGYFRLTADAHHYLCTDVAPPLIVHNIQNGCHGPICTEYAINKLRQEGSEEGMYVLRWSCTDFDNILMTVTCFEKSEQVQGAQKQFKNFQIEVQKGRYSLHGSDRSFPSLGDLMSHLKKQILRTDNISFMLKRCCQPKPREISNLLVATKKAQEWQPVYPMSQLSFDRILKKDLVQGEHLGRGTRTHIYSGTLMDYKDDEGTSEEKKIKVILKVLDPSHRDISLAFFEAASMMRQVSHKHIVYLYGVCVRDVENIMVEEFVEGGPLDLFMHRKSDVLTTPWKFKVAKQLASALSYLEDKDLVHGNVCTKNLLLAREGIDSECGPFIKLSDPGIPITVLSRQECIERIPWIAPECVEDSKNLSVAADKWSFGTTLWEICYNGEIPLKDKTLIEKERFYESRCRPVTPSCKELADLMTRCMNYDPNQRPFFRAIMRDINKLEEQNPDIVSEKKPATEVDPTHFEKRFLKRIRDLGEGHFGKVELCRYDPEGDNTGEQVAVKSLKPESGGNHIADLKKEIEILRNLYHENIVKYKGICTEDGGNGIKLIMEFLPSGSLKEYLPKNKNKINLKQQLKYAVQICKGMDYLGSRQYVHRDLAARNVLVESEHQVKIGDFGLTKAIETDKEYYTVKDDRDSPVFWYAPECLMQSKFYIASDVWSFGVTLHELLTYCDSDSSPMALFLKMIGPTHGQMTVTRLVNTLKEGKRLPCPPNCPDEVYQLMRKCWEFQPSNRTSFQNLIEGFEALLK

Regarding `O=C(Nc1nc2cccc(C3=CCC(NC(=O)C4CC4)CC3)n2n1)C1CC1` (stereo not drawn), the Ratio IC50 in the assay listed under Homo sapiens [1] is 9.5; in the assay filed under Homo sapiens [2], 3.3.
For `N#CCC(=O)N1CCC2(CCC(c3cccc4nc(NC(=O)C5CC5)nn34)CC2)C1` (stereo not drawn), the IC50 – broadly, the concentration that gives 50% inhibition – was 0.068 µM in assay [3], 0.52 µM in assay [4], more than 10 µM in assay [5] and 0.278 µM in assay [6]. In addition, the Ratio IC50 in the assay listed under Homo sapiens [1] is 7.6; in the assay filed under Homo sapiens [2], 4.1.
In the case of `N#CCCN1CC2(CCC(c3cccc4nc(NC(=O)C5CC5)nn34)CC2)C1`, the concentration for half-maximal inhibition (IC50) is 0.065 µM in assay [3], more than 10 µM in assay [5] and 0.371 µM in assay [6].
Consider `O=C(Nc1nc2cccc([C@H]3CC[C@H](NC(=O)[C@@H]4CC4(F)F)CC3)n2n1)C1CC1`, for which the IC50 in assay [3] is 0.181 µM; in assay [4], 4.75 µM; in assay [5], more than 10 µM; in assay [6], 1.74 µM. Besides, the Ratio IC50 was 26.3 in the assay listed under Homo sapiens [1] and 9.6 in the assay filed under Homo sapiens [2].
Take `O=C(Nc1nc2cccc(C3=CC[C@H](NC(=O)[C@H]4CC4(F)F)CC3)n2n1)C1CC1`: the Ratio IC50 in the assay listed under Homo sapiens [1] came out at 7.4; in the assay filed under Homo sapiens [2], 4.2.
Regarding `O=C(Nc1nc2cccc(C3=CC[C@@H](NC(=O)[C@@H]4CC4(F)F)CC3)n2n1)C1CC1`, the IC50 in assay [3] came to 0.163 µM; in assay [6], 1.37 µM. In the assay listed under Homo sapiens [2], the Ratio IC50 turned out to be 8.4.
On to `N#CCN1CC2(CCC(c3cccc4nc(NC(=O)C5CC5)nn34)CC2)C1`, for which the 50% inhibitory concentration (IC50) in assay [3] is 0.114 µM; in assay [5], more than 10 µM; in assay [6] it was 0.581 µM.
Take `O=C(Nc1nc2cccc(C3=CCC(NC(=O)C4CC4(F)F)CC3)n2n1)C1CC1` (stereo not drawn): the values for the Ratio IC50 in the assay listed under Homo sapiens [1] and in the assay listed under Homo sapiens [2] were 11.9 and 3.6, respectively.
Consider `O=C(Nc1nc2cccc([C@@H]3CCC4(C3)CN(C(=O)[C@@H]3CC3(F)F)C4)n2n1)C1CC1`, for which the IC50 in assay [3] was 0.176 µM; in assay [5], more than 10 µM; in assay [6] it was 0.404 µM.
Consider `O=C(Nc1nc2cccc(C3=CCN(C(=O)C4CC4(F)F)C3)n2n1)C1CC1` (stereo not drawn), for which the IC50 in assay [5] was more than 10 µM.
As for `N#CC1(C(=O)N2CC3(CCC(c4cccc5nc(NC(=O)C6CC6)nn45)CC3)C2)CC1`, the concentration for half-maximal inhibition (IC50) in assay [3] is 0.015 µM; in assay [5], more than 10 µM; in assay [6], 0.018 µM.
Regarding `O=C(Nc1nc2cccc([C@@H]3CCC4(CCN(C(=O)[C@@H]5CC5(F)F)CC4)C3)n2n1)C1CC1`, the concentration for half-maximal inhibition (IC50) is 0.381 µM in assay [3], 1.92 µM in assay [4], more than 10 µM in assay [5] and 0.57 µM in assay [6]. The results for the Ratio IC50 in the assay filed under Homo sapiens [1] and in the assay listed under Homo sapiens [2] were 5 and 1.5, respectively.
For `O=C(Nc1nc2cccc(C3CCC4(CC3)CCN(C(=O)[C@H]3CC3(F)F)C4)n2n1)C1CC1` (stereo partly drawn), the concentration for half-maximal inhibition (IC50) worked out at 0.075 µM in assay [3], 0.789 µM in assay [4], 7.35 µM in assay [5] and 0.692 µM in assay [6]. The Ratio IC50 was found to be 10.5 in the assay listed under Homo sapiens [1] and 9.2 in the assay filed under Homo sapiens [2].
Consider `O=C(Nc1nc2cccc(C3=CC[C@@H](NC(=O)[C@H]4CC4(F)F)CC3)n2n1)C1CC1`, for which the half-maximal inhibitory concentration (IC50) is 0.166 µM in assay [3] and 0.942 µM in assay [6]. For the same compound, in the assay filed under Homo sapiens [2], the Ratio IC50 amounted to 5.7.
For `O=C(Nc1nc2cccc(C3=CCN(C(=O)C4(F)CC4)C3)n2n1)C1CC1`, the figures for the Ratio IC50 in the assay filed under Homo sapiens [1] and in the assay filed under Homo sapiens [2] were 2.1 and 5.4, respectively.
Regarding `O=C(Nc1nc2cccc(C3=CC[C@H](NC(=O)[C@@H]4CC4(F)F)CC3)n2n1)C1CC1`, the half-inhibitory concentration (IC50) came out at 0.012 µM in assay [3], 0.141 µM in assay [4], 5.52 µM in assay [5] and 0.078 µM in assay [6]. The Ratio IC50 in the assay filed under Homo sapiens [1] was 11.8; in the assay filed under Homo sapiens [2] it was 6.5.
As for `N#CCC(=O)N1CCC2(CCC(c3cccc4nc(NC(=O)C5CC5)nn34)CC2)CC1`, the half-inhibitory concentration (IC50) in assay [3] came out at 0.02 µM; in assay [4], 0.08 µM; in assay [5], 2.32 µM; in assay [6], 0.026 µM. Further, the Ratio IC50 stood at 4 in the assay listed under Homo sapiens [1] and 1.3 in the assay listed under Homo sapiens [2].
In the case of `O=C(Nc1nc2cccc(C3CCC4(CC3)CCN(C(=O)CC(F)(F)F)CC4)n2n1)C1CC1`, the 50% inhibitory concentration (IC50) in assay [3] was 0.054 µM; in assay [4], 0.294 µM; in assay [5], more than 10 µM; in assay [6] it was 0.155 µM. The Ratio IC50 in the assay listed under Homo sapiens [1] was 5.4; in the assay listed under Homo sapiens [2] it was 2.9.
`O=C(Nc1nc2cccc(C3CCC4(CC3)CCN(C(=O)CC(F)(F)F)C4)n2n1)C1CC1` (stereo not drawn): the IC50 in assay [3] was 0.131 µM; in assay [4] it was 2.73 µM; in assay [5] it was more than 10 µM; in assay [6] it was 1.53 µM. In addition, the values for the Ratio IC50 in the assay filed under Homo sapiens [1] and in the assay listed under Homo sapiens [2] were 20.8 and 11.6, respectively.
`O=C(Nc1nc2cccc([C@H]3CCC4(CCN(C(=O)[C@@H]5CC5(F)F)CC4)C3)n2n1)C1CC1`: the IC50 in assay [3] came to 0.063 µM; in assay [4], 0.998 µM; in assay [5] it was 9.39 µM; in assay [6] it was 0.829 µM. For the same compound, the Ratio IC50 is 15.8 in the assay filed under Homo sapiens [1] and 13.2 in the assay filed under Homo sapiens [2].
In the case of `CC(C)(C#N)C(=O)N1CC2(CCC(c3cccc4nc(NC(=O)C5CC5)nn34)CC2)C1`, the results for the half-inhibitory concentration (IC50) in assay [3], in assay [5] and in assay [6] were 0.02 µM, 9.67 µM and 0.106 µM, respectively.
On to `O=C(Nc1nc2cccc(C3=CCN(C(=O)C4CC4)CC3)n2n1)C1CC1`, for which the results for the Ratio IC50 in the assay listed under Homo sapiens [1] and in the assay listed under Homo sapiens [2] were 4.7 and 2, respectively.
Regarding `O=C(Nc1nc2cccc([C@H]3CC[C@@H](NC(=O)[C@H]4CC4(F)F)CC3)n2n1)C1CC1`, the 50% inhibitory concentration (IC50) in assay [3] was 0.048 µM; in assay [4], 0.962 µM; in assay [5], more than 10 µM; in assay [6], 0.455 µM. The Ratio IC50 in the assay listed under Homo sapiens [1] came to 20; in the assay listed under Homo sapiens [2], 9.5.
Turning to `O=C(Nc1nc2cccc(C3CCC(NC(=O)C4CC4(F)F)CC3)n2n1)C1CC1` (stereo not drawn), the Ratio IC50 is 7.7 in the assay filed under Homo sapiens [1] and 3.3 in the assay listed under Homo sapiens [2].
As for `O=C(Nc1nc2cccc([C@H]3CC[C@H](NC(=O)[C@H]4CC4(F)F)CC3)n2n1)C1CC1`, the concentration for half-maximal inhibition (IC50) was 0.341 µM in assay [3], 8.07 µM in assay [4], more than 10 µM in assay [5] and 5.76 µM in assay [6]. Besides, the Ratio IC50 came to 23.7 in the assay filed under Homo sapiens [1] and 16.9 in the assay listed under Homo sapiens [2].
In the case of `O=C(Nc1nc2cccc([C@H]3CCC4(C3)CN(C(=O)[C@@H]3CC3(F)F)C4)n2n1)C1CC1`, the 50% inhibitory concentration (IC50) was 0.063 µM in assay [3], more than 10 µM in assay [5] and 0.83 µM in assay [6].

The values are drawn from ChEMBL document CHEMBL5150077, “Identification of TUL01101: A Novel Potent and Selective JAK1 Inhibitor for the Treatment of Rheumatoid Arthritis” (J Med Chem, 2022).
